Test results as given in patent publication US11110098B2, “Methods and medicaments for the treatment of renal cell carcinoma” (University of Kansas, priority 2017, dated 2021).

Assays:
Caki-2 = conditions: Caki-2, in vitro; cited from earlier work
A498 cells = conditions: A498, in vitro; cited from earlier work
Caki-1 cells [1] = test: Caki-1 xenograft tumor growth in nude mice; format: in vivo, Nu/Nu mice; conditions: for tumor size and weight at sacrifice versus vehicle: tolvaptan 120 mg/Kg daily oral gavage or dDAVP 1 μg/Kg daily IP
Description: Female Athymic Nude-Foxn1^nu mice (Nu/Nu mice), 7-8 weeks old and weighing ˜25 g were procured from Envigo/Harlan. All animal studies were carried out according to the protocols approved by the University of Kansas Medical Center Institutional Animal Care and Use Committee. Mice were subcutaneously injected on the right flank region with 1×10^6 Caki-1 cells in 100 μl of DMEM medium. […] Once the tumor volume reached ˜80-100 mm^3, mice were randomized into sub-groups based on the tumor volume. Animals were administered vehicle, OPC31260 (30 mg/Kg BWt.), OPC31260 (60 mg/Kg BWt) or dDAVP (1 μg/Kg BWt.) and vehicle (saline) by daily intraperitoneal injection, (60 mg/Kg BWt) or dDAVP (1 μg/Kg BWt.) and vehicle (saline) by daily intraperitoneal injection, or tolvaptan (120 mg/Kg BWt. in 1% aqueous solution of hydroxypropyl methylcellulose-dose derived from previous study^31) or vehicle by daily oral gavage for 28 days. Body weights and tumor volumes were measured every alternate day. At the end of the study, mice were injected with BRDU (100 mg/Kg BWt. by IP) 90 minutes before sacrifice. Tumors were harvested, photographed and weighed. Tumors were flash frozen or paraffin embedded for further analysis.

[2] = format: in vivo; conditions: tolvaptan 120 mg/Kg daily oral gavage or dDAVP 1 μg/Kg daily IP, 28 days; for urine osmolality: data not shown
Description: (§1) Female Athymic Nude-Foxn1^nu mice (Nu/Nu mice), 7-8 weeks old and weighing ˜25 g were procured from Envigo/Harlan. All animal studies were carried out according to the protocols approved by the University of Kansas Medical Center Institutional Animal Care and Use Committee. Mice were subcutaneously injected on the right flank region with 1×10^6 Caki-1 cells in 100 μl of DMEM medium. One week after injection, palpable tumors appeared and tumor volume was measured with calipers following the formula, […]. Once the tumor volume reached ˜80-100 mm^3, mice were randomized into sub-groups based on the tumor volume. Animals were administered vehicle, OPC31260 (30 mg/Kg BWt.), OPC31260 (60 mg/Kg BWt) or dDAVP (1 μg/Kg BWt.) and vehicle (saline) by daily intraperitoneal injection, or tolvaptan (120 mg/Kg BWt. in 1% aqueous solution of hydroxypropyl methylcellulose-dose derived from previous study^31) or vehicle by daily oral gavage for 28 days. Body weights and tumor volumes were measured every alternate day. At the end of the study, mice were injected with BRDU (100 mg/Kg BWt. by IP) 90 minutes before sacrifice. Tumors were harvested, photographed and weighed. Tumors were flash frozen or paraffin embedded for further analysis.

Caki-1 cells [3] = test: Immunostaining of xenograft tumor sections (Ki-67, BRDU, CD31); format: in vivo, Nu/Nu mice; conditions: for BRDU staining / incorporation of tumors compared to vehicle / Ki-67 staining of tumors compared to vehicle / tumor micro-vessel density (CD31 staining): OPC31260 IP, tolvaptan 120 mg/Kg oral, dDAVP 1 μg/Kg IP, daily 28 days
Description: as §1
Tumor tissues were fixed overnight in 4% paraformaldehyde, dehydrated in a graded alcohol series, and embedded in paraffin for histological analysis as previously described^26. Slides with 5 μm tissue sections were heated in a steamer for 20 min in citrate buffer (pH 6.0) to unmask antigens. Slides were further blocked with 10% goat serum (Invitrogen) and then incubated overnight with primary antibody (V2R, CD31, BRDU, Ki67 and p-H3). After washing the slides with PBST, slides were incubated with appropriate fluorescence-labeled secondary antibody (Invitrogen) and streptavidin HRP conjugated (Invitrogen) secondary antibody for immunoflurorescence and immunohistochemistry, respectively. Slides were also incubated in 4′,6-diamidino-2-phenylindole to visualize nuclei. For immunofluorescence staining, slides were mounted with Fluoromount G (Southern Biotech). For immunohistochemistry, slides were developed with DAB (Vector Laboratories) and counterstained with Harris haematoxylin, dehydrated, and mounted with Permount (Fisher Scientific, Waltham, Mass.). All images were captured using a Nikon 80i microscope (Tokyo, Japan) at the KUMC Imaging Center.

Caki-1 cells [4] = test: TUNEL assay for apoptosis in xenograft tumor sections; format: in vivo, Nu/Nu mice; conditions: OPC31260 IP, tolvaptan 120 mg/Kg oral, dDAVP 1 μg/Kg IP, daily 28 days
Description: as §1
TUNEL assays were performed to check apoptosis using the in situ Cell Death Detection Kit (Roche Applied Science, Indianapolis, Ind.). Briefly, slides with 5-μm tumor sections were treated to a TUNEL reaction mixture containing terminal deoxynucleotidyl transferase and nucleotides, including tetramethylrhodamine-labeled dUTP. Both Dapi stained and TUNEL-positive nuclei were counted as described for proliferating cell nuclear antigen. All images were captured using a Nikon 80i microscope (Tokyo, Japan) in the KUMC Imaging Center.

[5] = test system: pERK1/2, ERK1/2, pCREB, CREB, VEGF; test: Immunoblotting of xenograft tumor lysates; format: in vivo, Nu/Nu mice; conditions: for VEGF protein levels in tumors compared to vehicle: OPC31260 IP, daily 28 days
Description: as §1
Tumors from mouse xenografts and cultured 786-O and Caki-1 cells were homogenized in SDS Laemmli buffer and loaded onto 10% SDS-polyacrylamide agarose gel electrophoresis gels, transferred to nitrocellulose membranes and blocked with 5% milk in TBST^32. Membranes were probed with primary antibody followed by wash and horseradish peroxidase secondary antibody application.

CCRCC = test: Immunocompetent animal model of spontaneous CCRCC; format: in vivo, Vh1Δ/ΔTrp53Δ/ΔRb1Δ/Δ mice; conditions: treatment from 30 weeks after start of tamoxifen till 56 weeks
Text: The Vh1^Δ/ΔTrp53^Δ/ΔRb1^Δ/Δ mice (Harlander S et al, Nat Med 2017 23(7):869-877) can spontaneously develop CCRCC. Gene deletion of Vhl and tumor suppressors p53 and Rb 1 will be achieved using a Ksp1.3-CreERT2, tamoxifen-inducible system. For the studies, 6-week old Vh1^Δ/ΔTrp53^Δ/ΔRb1^Δ/ΔKsp1.3-CreERT2 mice will be treated with vehicle (saline) or tamoxifen for 14 days used to obtain wildtype control mice and Vh1^Δ/ΔTrp53^Δ/ΔRb1^Δ/Δ mice with RCC stumors. Starting 30 weeks after start of tamoxifen, the wildtype and Vh1^Δ/ΔTrp53^Δ/ΔRb1^Δ/Δ mice will be treated with vehicle, dDAVP, OPC31260, or tolvaptan till 56 weeks. The effect of V2R activation or inhibition will be monitored by MRI as well as by gross and pathological analysis and of kidneys at sacrifice.

V2R [6] = target: T1, V2R (Homo sapiens, UniProt P30518); conditions: cited from earlier work
T1 sequence (P30518 whole entry): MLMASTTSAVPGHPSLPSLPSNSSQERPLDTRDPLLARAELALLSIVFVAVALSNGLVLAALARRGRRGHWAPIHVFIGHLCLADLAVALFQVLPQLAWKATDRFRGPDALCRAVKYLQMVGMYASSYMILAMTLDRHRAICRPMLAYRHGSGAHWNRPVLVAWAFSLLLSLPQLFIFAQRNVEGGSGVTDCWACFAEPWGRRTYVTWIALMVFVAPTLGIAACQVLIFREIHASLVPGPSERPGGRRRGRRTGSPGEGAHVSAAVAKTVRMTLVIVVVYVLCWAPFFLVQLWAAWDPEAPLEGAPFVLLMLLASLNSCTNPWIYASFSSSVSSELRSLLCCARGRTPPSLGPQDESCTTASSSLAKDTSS

V1bR = target: T2, V1bR (Homo sapiens, UniProt P47901); conditions: cited from earlier work
T2 sequence (P47901 1-424): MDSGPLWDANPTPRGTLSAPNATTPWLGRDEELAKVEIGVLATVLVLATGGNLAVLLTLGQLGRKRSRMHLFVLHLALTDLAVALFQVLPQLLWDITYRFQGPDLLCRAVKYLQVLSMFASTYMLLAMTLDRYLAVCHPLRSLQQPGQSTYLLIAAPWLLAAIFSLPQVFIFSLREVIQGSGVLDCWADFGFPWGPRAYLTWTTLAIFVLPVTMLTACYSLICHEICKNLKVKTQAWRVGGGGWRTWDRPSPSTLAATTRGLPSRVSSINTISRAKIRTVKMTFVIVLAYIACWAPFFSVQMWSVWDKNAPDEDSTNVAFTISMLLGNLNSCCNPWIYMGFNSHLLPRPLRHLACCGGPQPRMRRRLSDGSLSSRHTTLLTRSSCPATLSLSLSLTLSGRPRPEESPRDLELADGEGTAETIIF

V2R [7] = target: T1, V2R; conditions: cited from earlier work; remark: listed apart in the source
[8] = in vivo; cited from earlier work
[9] = humans; cited from earlier work
[10] = OPC31260 30/60 mg/kg IP, tolvaptan 120 mg/Kg oral, dDAVP 1 μg/Kg IP, 28 days
[11] = tolvaptan 120 mg/Kg oral, dDAVP 1 μg/Kg IP
[12] = dDAVP 1 μg/Kg daily IP injection, day 28

SMILES | tumor size and weight at sacrifice versus vehicle (Caki-1 cells [1]; 28 days) | body weight of the mice [2] | toxicity [2] | urine osmolality [2] | BRDU staining / incorporation of tumors compared to vehicle (Caki-1 cells [3]) | Ki-67 staining of tumors compared to vehicle (Caki-1 cells [3]) | tumor micro-vessel density (CD31 staining) (Caki-1 cells [3]) | TUNEL staining of tumors compared to vehicle (Caki-1 cells [4]) | pCREB levels in tumor lysates [5, 10] | pERK1/2 levels in tumor lysates [5, 10] | VEGF protein levels in tumors compared to vehicle [5, 11] | expected tumor burden / tumor growth (CCRCC) | other results
CCOc1ccc2c(c1)C1(CCC(OCCN3CCOCC3)CC1)C(=O)N2S(=O)(=O)c1ccc(C(=O)NC(C)(C)C)cc1OC (stereo not drawn) [satavaptan] |  |  |  |  |  |  |  |  |  |  |  |  | effect on dDAVP-induced proliferation (Caki-2): abolished dDAVP-induced proliferation; effect on time-dependent increase in cell proliferation (baseline) (Caki-2): did not reduce; effect on dDAVP-induced proliferation (A498 cells): abolished dDAVP-induced proliferation; effect on time-dependent increase in cell proliferation (baseline) (A498 cells): did not reduce
Cc1ccccc1C(=O)Nc1ccc(C(=O)N2CCCC(O)c3cc(Cl)ccc32)c(C)c1 (stereo not drawn) [tolvaptan, N-[4-[(7-chloro-2,3,4,5-tetrahydro-5-hydroxy-1H-1-benzazepin-1-yl)carbonyl]-3-methylphenyl]-2-methylbenzamide] | smaller and weighed significantly less | did not significantly change | minimal obvious toxicity | significantly reduced | significantly reduced | significantly reduced | did not appear to alter | increased | reduced | reduced | significantly reduced | significantly suppress tumor growth | tumor volume versus vehicle (Caki-1 cells [1]; tolvaptan 120 mg/Kg daily oral gavage, 28 days): significantly reduced; effect on cell proliferation and apoptosis compared with OPC31260 (Caki-1 cells [3]; tolvaptan 120 mg/Kg oral versus OPC31260 IP): relatively lower than that of OPC31260; CREB levels in tumor lysates ([5]; OPC31260 30/60 mg/kg IP, tolvaptan 120 mg/Kg oral, 28 days): reduced; selectivity in blocking [3H]AVP binding to human V2R than V1aR (V2R [6]): 29 fold; inhibition of V1bR (V1bR): does not inhibit; intrinsic V2R agonistic effect (V2R [7]): no intrinsic V2R agonistic effect; oral activity compared with OPC31260 [8]: relatively better oral activity than OPC31260; mean absolute bioavailability [9]: 56%
NC(=O)CC[C@@H]1NC(=O)[C@H](Cc2ccccc2)NC(=O)[C@H](Cc2ccc(O)cc2)NC(=O)CCSSC[C@@H](C(=O)N2CCC[C@H]2C(=O)N[C@H](CCCN=C(N)N)C(=O)NCC(N)=O)NC(=O)[C@H](CC(N)=O)NC1=O [dDAVP, 1-desamino-8-d-arginine vasopressin] | larger than in the vehicle group | did not significantly change | minimal obvious toxicity | increased | no significant change | significant increase | increased | no significant change | increased | reduced | did not affect | increased tumor burden | tumor volume till day 21 (Caki-1 cells [1]; dDAVP 1 μg/Kg daily IP injection): did not increase significantly; tumor volume by day 28, higher than its baseline (Caki-1 cells [1]; [12]): 16 fold; tumor volume by day 28, higher than vehicle group (Caki-1 cells [1]; [12]): 2 fold; ERK1/2 levels in tumor lysates ([5]; dDAVP 1 μg/Kg IP, 28 days): reduced; proliferation on V2R activation (Caki-2): increased proliferation; proliferation on V2R activation (A498 cells): increased proliferation
